One assay deals with isolated rat hearts. Description: Atrial fibrillation induction by burst pacing with carbachol in isolated rat hearts. On the procedure:
Atrial Fibrillation induction in Sprague-Dawley rats: For evaluation of Tram-34 and BA6b9 on atrial fibrillation (AF) induction, a custom-made quadripolar electrode was inserted for simultaneous recording and pacing on the HRA. To increase susceptibility for reentry and atrial tachyarrhythmia, the cholinergic agonist carbachol was used. First, baseline AERP was measured under normal physiological conditions, and the measurement was repeated upon exposure to 0.3 μM carbachol, 0.3 μM carbachol+10 μM Tram-34 or 0.3 μM carbachol+10 μM BA6b9. Then, for AF induction, burst pacing was applied to the HRA under increasing pacing thresholds (2×, 3×, 4×, 5×, and 6× threshold). This protocol included two consecutive 5 second bursts at a cycle length of 20 milliseconds for each threshold. This protocol was tested under […] conditions: normal physiological conditions, 0.3 μM carbachol, 0.3 μM carbachol+10 μM Tram-34, or 0.3 μM carbachol+10 μM BA6b9. To determine AF susceptibility under each condition, an AFIS (AF induction score) ranking system was created, relying on the level of threshold intensity when AF induction was successful. Lower AF induction threshold means higher AFIS. The ranking was as follows: induction at 2×-diastolic threshold received the highest score of 5, at 3× the received score was 4, at 4× the received score was 3, at 5× the received score was 2, at 6× the received score was 1, and if no induction occurred it scored zero. For AF sustainability quantification, sustained AF was determined as lasting ≥5 minutes. Non-sustained AF received a score of zero and sustained AF received a score of 1.

For a further assay, the target named is T1, rat SK2 (Rattus norvegicus, UniProt P70604).
T1 construct: expressed in transfected cells; host or cells: CHO cells
Kind of assay: Whole-cell patch-clamp of SK2 currents in CHO cells. The format is cell-based. Conditions: 20 μM. On the procedure: (§1) Constructs: For CHO cell transfection, the following were cloned: human SK1, rat SK2, human SK3, and rat calmodulin into the pcDNA3 vector, human SK4 into pEGFP-C1 vector, and PIP4,5-kinase into an IRES-dsRed plasmid. The mutations were introduced using the PCR-based QuikChange™ site-directed mutagenesis (Stratagene®) and were verified by full sequencing of the entire plasmid vector.
Cell Culture and Transfection: Chinese hamster ovary (CHO) cells were grown in Dulbecco's modified Eagle's medium supplemented with 2 millimolar (mM) glutamine, 10% fetal calf serum, and antibiotics. In brief, 40,000 cells seeded on poly-L-lysine-coated glass coverslips (13 millimeter (mm) in diameter) in a 24-multiwell plate were transfected with 0.5 microgram (μg) pEGFP-SK4/0.5 μg mutant SK4, 1.2 μg dsRed-PIP4,5-kinase or with 1 μg SK1/SK2/SK3 together with pIRES-CD8 (0.3 μg) as a marker for transfection. […]
Whole-cell patch-clamp recording: Voltage-clamp recordings were performed using the whole-cell configuration of the patch-clamp technique. […] The intracellular pipette solution contained 130 mM KCl, 5 mM EGTA, 10 mM HEPES, pH 7.3 (adjusted with KOH), and CaCl2 calculated for a final concentration of 1 μM free-Ca^2+, by MAXCHELATOR (WEBMAXC STANDARD) software, with sucrose added to adjust osmolarity to 290 mosM. […]
A general note: Patch clamp records ionic current or voltage across a cell membrane.

The target in assay [1] is T2, WT SK4 channel co-transfected with CaM (Homo sapiens, UniProt O15554).
T2 construct: expressed in transfected cells; host or cells: CHO cells
Description: Whole-cell patch-clamp of WT SK4 channel co-transfected with WT CaM or CaM mutants. The format is cell-based. On the procedure:
as §1
(§2) Whole-cell patch-clamp recording: Voltage-clamp recordings were performed using the whole-cell configuration of the patch-clamp technique. Signals were amplified using an […] patch-clamp amplifier (Molecular Devices), sampled at 5 kHz and filtered at 2.4 kHz via a four pole Bessel low pass filter. Data were acquired using pClamp™ 10.5 software in conjunction with an Axon™ DigiData® 1440A interface (Molecular Devices). The patch pipettes were pulled from borosilicate glass (Harvard Apparatus) with a resistance of 3-5 megaohms (MΩ). The intracellular pipette solution contained 130 mM KCl, 5 mM EGTA, 10 mM HEPES, pH 7.3 (adjusted with KOH), and CaCl2 calculated for a final concentration of 1 μM free-Ca^2+, by MAXCHELATOR (WEBMAXC STANDARD) software, with sucrose added to adjust osmolarity to 290 mosM. The external solution (310 mosM) contained 140 mM NaCl, 4 mM KCl, 1.8 mM CaCl2, 1.2 mM MgCl2, 11 mM glucose, and 5.5 mM HEPES adjusted with NaOH to pH 7.3. CHO cells were held at −90 millivolt (mV) and SK4 K^+ currents were activated using a voltage ramp protocol from −100 mV to +60 mV for 150 milliseconds. Electrophysiological data analysis was performed using the Clampfit program (pClamp™ 10.5; Molecular Devices).
(§3) To examine ex-vivo the interactions between BA6b9 and the simulated residues seen in FIG. 5B, residues that are in atomic proximity and are expected to interact with BA6b9 were mutated. Such mutated residues were, for example, R191 and H192 of linker S4-S5, M72 and M76 of the CaM linker as well as L19, E22, Y179, S181, A184, Q187 and R189, which are more distant from BA6b9.

In assay [2] the test system is SK4 channel mutants. Description: Whole-cell patch-clamp of SK4 channel mutants. The format is cell-based, human. Conditions: 20 μM. On the procedure:
as §1, §2, §3

In assay [3] the target is T3, SK4 channel mutants (Homo sapiens, UniProt O15554, L19W).
T3 construct: expressed in transfected cells; host or cells: CHO cells
Kind of assay: Whole-cell patch-clamp of SK4 channel mutants. The format is cell-based. The settings on record: read-out: inhibition of SK4 mutant L19W current. The procedure: as §1, §2, §3

For assay [4], the target named is T4, SK4 channel mutants (Homo sapiens, UniProt O15554, H192A).
T4 construct: expressed in transfected cells; host or cells: CHO cells
Kind of assay: Whole-cell patch-clamp of SK4 channel mutants. The format is cell-based. The settings on record: read-out: inhibition of SK4 mutant H192A current. The procedure: as §1, §2, §3

For assay [5], the target named is T5, SK4 channel mutants (Homo sapiens, UniProt O15554, E22A).
T5 construct: expressed in transfected cells; host or cells: CHO cells
Description: Whole-cell patch-clamp of SK4 channel mutants. The settings on record: read-out: inhibition of SK4 mutant E22A current. The format is cell-based. The procedure: as §1, §2, §3

The target of assay [6] is T6, SK4 channel mutants (Homo sapiens, UniProt O15554, R191A).
T6 construct: expressed in transfected cells; host or cells: CHO cells
Description: Whole-cell patch-clamp of SK4 channel mutants. The format is cell-based. The settings on record: read-out: inhibition of SK4 mutant R191A current. The procedure: as §1, §2, §3

Assay [7] has as its target T7, SK4 channel mutants (Homo sapiens, UniProt O15554, R352Q).
T7 construct: expressed in transfected cells; host or cells: CHO cells
Kind of assay: Whole-cell patch-clamp of SK4 channel mutants. The format is cell-based. The settings on record: read-out: inhibition of SK4 mutant R352Q current. On the procedure:
as §1, §2, §3

Where two headings read alike, the source gives them in different places.

As a reminder, the inhibition is the relative decrease from the control value, in per cent.

`CCCCCCCn1c(=O)oc2ccccc21` [BA6b9, 3-heptylbenzo[d]oxazol-2(3H)-one]: the “reduction of AFIS” value in the assay with isolated rat hearts (10 μM + 0.3 μM carbachol vs carbachol alone) is on record as 48%. Also, the “AFIS (AF induction score)” value with isolated rat hearts (10 μM + 0.3 μM carbachol, 3.1 with carbachol alone) came to 1.6. Moreover, the “sustained AF induction” value in the assay with isolated rat hearts (10 μM + 0.3 μM carbachol, 100% with carbachol alone) is reported as 70%. Moreover, the “heart preparations in which AF sustainability was prevented” value in the assay with isolated rat hearts (10 μM, burst pacing) was found to be 30%. In addition, on rat SK2, the “SK2 activity in comparison with control” value amounted to 134%. Also, the “SK2 drug-to-control current ratio” value at rat SK2 amounted to 1.34. Further, in assay [1] (20 μM), the “modulation of WT SK4 co-transfected with CaM mutant M72A (representative trace)” value was “not indicating modulation”. Moreover, the inhibition at 20 µM in assay [1] (read-out: inhibition of WT SK4 co-transfected with CaM mutant M72A) was found to be 0%; in assay [1] (read-out: inhibition of WT SK4 co-transfected with CaM mutant M76A), 19%; in [1] (read-out: inhibition of WT SK4 co-transfected with WT CaM), 47%; on SK4 channel mutants [3], 46%; on SK4 channel mutants [4] it was 16%; on SK4 channel mutants [5] it was 56%. For the same compound, the inhibition at 20 µM on SK4 channel mutants [6] was determined as 30%; on SK4 channel mutants [7] it was 31%. The “sensitivity of mutants R352Q, R191A, H192A to inhibition compared to WT SK4” value in the assay on SK4 channel mutants [2] is reported as “significantly less sensitive”.

The values above are taken from patent US20240366571A1, “MODULATORS OF SK4 POTASSIUM CHANNEL AND USES THEREOF” (Ramot at Tel-Aviv University Ltd., priority 2022, published 2024).
